Here are results for 19 compounds from patent US20240117417A1, “CELL ENGINEERING COMPOSITIONS AND METHODS USING FLUOROGENIC OLIGONUCLEOTIDE SIGNALING PROBES AND FLOW CYTOMETRY” (Secondcell Bio, LLC, priority 2021, published 2024).

Where a name gives a salt, the structure may show the parent alone.

T1 sequence (P51170 whole entry): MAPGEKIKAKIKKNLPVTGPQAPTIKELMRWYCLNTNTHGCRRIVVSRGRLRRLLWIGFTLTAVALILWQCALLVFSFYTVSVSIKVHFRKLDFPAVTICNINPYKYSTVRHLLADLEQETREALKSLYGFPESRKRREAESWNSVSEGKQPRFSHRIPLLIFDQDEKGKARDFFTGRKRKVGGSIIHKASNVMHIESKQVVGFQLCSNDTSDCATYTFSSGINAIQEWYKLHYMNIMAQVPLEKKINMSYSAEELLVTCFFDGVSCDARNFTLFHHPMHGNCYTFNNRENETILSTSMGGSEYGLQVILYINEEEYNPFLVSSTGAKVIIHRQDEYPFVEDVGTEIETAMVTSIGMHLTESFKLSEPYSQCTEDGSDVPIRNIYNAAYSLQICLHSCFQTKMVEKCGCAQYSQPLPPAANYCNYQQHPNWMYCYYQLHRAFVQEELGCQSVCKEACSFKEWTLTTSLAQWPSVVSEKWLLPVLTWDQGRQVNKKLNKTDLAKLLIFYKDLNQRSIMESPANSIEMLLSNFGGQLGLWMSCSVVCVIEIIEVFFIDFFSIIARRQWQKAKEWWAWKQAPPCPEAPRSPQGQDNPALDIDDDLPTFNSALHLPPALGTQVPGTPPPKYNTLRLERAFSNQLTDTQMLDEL
T1 sequence (P51168 whole entry): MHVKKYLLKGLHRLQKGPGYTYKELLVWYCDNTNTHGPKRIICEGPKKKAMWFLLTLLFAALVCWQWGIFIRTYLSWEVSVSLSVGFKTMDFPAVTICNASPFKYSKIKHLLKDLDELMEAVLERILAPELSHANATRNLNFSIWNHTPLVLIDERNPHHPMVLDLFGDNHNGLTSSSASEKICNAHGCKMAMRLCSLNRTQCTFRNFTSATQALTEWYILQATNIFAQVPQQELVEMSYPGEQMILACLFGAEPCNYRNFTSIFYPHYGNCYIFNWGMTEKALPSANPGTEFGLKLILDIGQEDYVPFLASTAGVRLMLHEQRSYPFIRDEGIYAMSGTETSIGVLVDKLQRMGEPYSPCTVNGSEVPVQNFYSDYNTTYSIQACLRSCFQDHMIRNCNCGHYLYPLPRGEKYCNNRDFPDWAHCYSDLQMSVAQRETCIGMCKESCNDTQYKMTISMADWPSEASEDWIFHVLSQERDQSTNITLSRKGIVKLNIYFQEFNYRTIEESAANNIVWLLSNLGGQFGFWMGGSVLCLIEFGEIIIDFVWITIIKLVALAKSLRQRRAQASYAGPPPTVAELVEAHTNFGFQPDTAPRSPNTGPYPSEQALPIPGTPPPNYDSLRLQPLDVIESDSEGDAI
T1 sequence (P37088 whole entry): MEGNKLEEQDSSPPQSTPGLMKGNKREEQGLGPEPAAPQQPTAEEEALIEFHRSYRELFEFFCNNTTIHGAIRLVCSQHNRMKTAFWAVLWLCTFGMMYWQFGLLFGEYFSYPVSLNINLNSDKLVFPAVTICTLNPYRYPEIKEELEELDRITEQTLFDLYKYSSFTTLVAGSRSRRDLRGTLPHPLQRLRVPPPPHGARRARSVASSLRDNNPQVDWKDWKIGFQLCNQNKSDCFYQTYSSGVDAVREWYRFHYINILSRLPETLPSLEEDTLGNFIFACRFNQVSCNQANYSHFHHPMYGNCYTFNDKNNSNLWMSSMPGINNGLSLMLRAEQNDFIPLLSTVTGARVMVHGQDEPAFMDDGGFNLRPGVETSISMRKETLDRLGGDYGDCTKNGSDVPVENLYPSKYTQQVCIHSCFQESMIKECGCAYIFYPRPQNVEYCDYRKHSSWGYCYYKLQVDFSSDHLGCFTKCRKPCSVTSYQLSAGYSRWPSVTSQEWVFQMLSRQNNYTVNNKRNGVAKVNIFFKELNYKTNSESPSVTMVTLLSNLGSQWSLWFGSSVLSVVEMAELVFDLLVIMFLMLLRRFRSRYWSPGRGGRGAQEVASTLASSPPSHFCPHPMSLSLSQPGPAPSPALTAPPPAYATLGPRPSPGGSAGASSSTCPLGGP

For the first assay, the system named is salty taste of sodium chloride. Nature of the assay: human sensory taste testing, pairwise comparisons. In kind it is in vivo. As to conditions: pairwise comparisons of 45 mM NaCl+15 pg STE1/mL. As for the experimental part: The sensory studies used pairwise comparisons of 45 mM NaCl+15 pg STE1/mL using a human sensory taste testing protocol approved by an institutional review board, 13 out of 15 participants selected the sample containing STE1 as more salty.
With `CCCc1ccc(OC(=O)c2ccco2)cc1` [STE1, 4-propylphenyl 2-furoate], the “participants who selected the sample containing STE1 as more salty” value is given as 13 out of 15.

The subject of a further assay is CFTR. Nature of the assay: functional cell-based assay of the CFTR cell line (response to Forskolin). As to conditions: FIG. 22A left panel, read-out: EC50 value, dose-response curve for the CFTR cell line. As to the method: Production of cell lines: Each gene of interest was subcloned into an independent mammalian expression vector containing a detection tag and drug selectable marker and transfected into HEK293T and CHO cells cultured using DMEM supplemented with 50 mL fetal bovine serum, a 4 mM L-Glutamine, 10 mM Hepes pH 7.4. After 1 to 3 days cells were transferred to fresh media containing mild selective pressure for 7 to 14 days. On the day of the experiment, each well of four to six 24-well tissue culture plates was plated with 200 ul to 400 ul of transfected cells at 1.25 to 2×10^6 cells/mL in serum-free media and exposed to differentially-labeled signaling probes that can hybridize with the expression products. […]
(§1) Cell-based Assays: Functional testing using fluorescent cell-based assays in the absence of any antibiotic-mediated selectable pressure was performed over time (typically for at least 4 to 6 weeks) to identify inherently stable clones. Commonly available fluorescent membrane potential and calcium flux kits and reagents were used for fluorescent cell-based assays in 96-well and 384-well plates using the Molecular Devices FLIPR 3 and Hamamatsu FDSS 6000 plate readers as described (Shekdar 2011; Shekdar and Sawchuk 2012; Shekdar and Venkatachalan 2012, Shekdar 2017). […] Currents were measured using the whole-cell configuration. […]
Take `C=C[C@@]1(C)CC(=O)[C@]2(O)[C@@]3(C)[C@@H](O)CCC(C)(C)[C@@H]3[C@H](O)[C@H](OC(C)=O)[C@@]2(C)O1` [Forskolin]: the concentration giving a half-maximal response (EC50) (as a rule, the concentration needed to bring the measured effect to its halfway point) amounted to 0.256 µM.

The next assay deals with GABAA receptor ion channel subunit combinations α1β3γ2s, α2β3γ2s, α3β3γ2s or α5β3γ2s. Nature of the assay: HTS of LOPAC library on the panel of GABAA cell lines, fluorescent membrane potential cell-based assay.
Settings: not given
As for the experimental part:
Production of cell lines: Each gene of interest was subcloned into an independent mammalian expression vector containing a detection tag and drug selectable marker and transfected into HEK293T and CHO cells cultured using DMEM supplemented with 50 mL fetal bovine serum, a 4 mM L-Glutamine, 10 mM Hepes pH 7.4. After 1 to 3 days cells were transferred to fresh media containing mild selective pressure for 7 to 14 days. On the day of the experiment, each well of four to six 24-well tissue culture plates was plated with 200 ul to 400 ul of transfected cells at 1.25 to 2×10^6 cells/mL in serum-free media and exposed to differentially-labeled signaling probes that can hybridize with the expression products. For each well, 1.7 to 2.5 uL of each probe at a concentration of 2.5 to 5 uM was added to 50 uL of serum free media in tube A and 0.3 to 0.75 uL of transfection reagent, using Lipofectamine for HEK cells (Thermo Fisher 18324) and jetPEI for CHO (Polyplus Transfection 101) was added to tube B. The contents of tubes A and B were mixed and incubated at room temperature for 25 to 30 minutes prior to addition to the well. Following a 1 to 2 hour incubation at 37° C. in a tissue culture incubator, serum-free media was added to the well up to a total volume of 1 mL. The plates were spun at 2,000 RPM for 4 minutes. 750 uL of media was aspirated and replaced with 250 uL of fresh serum-free media. The cells were incubated for an additional 2 to 2.5 hours then used to isolate individual positive cells using Beckman Coulter Epic Altra or Becton Dickinson FACS Aria flow cytometers.
(§2) Cell-based Assays: Functional testing using fluorescent cell-based assays in the absence of any antibiotic-mediated selectable pressure was performed over time (typically for at least 4 to 6 weeks) to identify inherently stable clones. Commonly available fluorescent membrane potential and calcium flux kits and reagents were used for fluorescent cell-based assays in 96-well and 384-well plates using the Molecular Devices FLIPR 3 and Hamamatsu FDSS 6000 plate readers as described (Shekdar 2011; Shekdar and Sawchuk 2012; Shekdar and Venkatachalan 2012, Shekdar 2017). Electrophysiology of ion channel cell lines was obtained using the Nanion Technologies Patchliner patch clamp system. The patch clamp recordings were conducted according to Nanion's standard procedure (Obergrussberger 2014). Currents were measured using the whole-cell configuration. The extracellular solution contained the following: 140 mM NaCl, 4 mM KCl, 1 mM MgCl2, 2 mM CaCl2), 5 mM glucose, 10 mM Hepes, pH 7.4 (adjusted with NaOH). The intracellular solution for sodium current recordings contained the following: 50 mM CsCl, 10 mM NaCl, 60 mM CsF, 20 mM EGTA, 10 mM Hepes, pH 7.2 (adjusted with CsOH). For transient transfection studies, Fugene 6 was used to transfect expression plasmid into cells cultured as above and cells were assayed three days post-transfection.
Turning to `C[C@]12CC[C@@H](O)C[C@@H]1CC[C@@H]1[C@@H]2CC[C@]2(C)C(=O)CC[C@@H]12` [Androsterone], the “HTS hit: activated at least one of the GABAA cell lines at least as much as GABA itself” value (“HTS hit: activated at least one” below) is reported as “identified”.

For the compound `CC(C)c1cccc(C(C)C)c1O` [Propofol], the “HTS hit: activated at least one” value is given as “activated at least one of the cell lines at least as much as GABA itself”.

Staying with this assay, now noted: LOPAC (Sigma 1280) screen on panel of four GABAA cell lines.
For `C[C@]12CC[C@@H](O)C[C@@H]1CC[C@@H]1[C@@H]2CC[C@]2(C)[C@@H](C(=O)CO)CC[C@@H]12` [3-alpha, 21-dihydroxy-5-alpha-pregnan-20-one], the “HTS hit: activated at least one” value was “activated at least one of the cell lines at least as much as GABA itself”.

Turning to `CC(=O)[C@H]1CC[C@H]2[C@@H]3CC[C@H]4C[C@H](O)CC[C@]4(C)[C@H]3CC[C@]12C` [5-alpha-pegnan-3alpha-ol-20-one], the “HTS hit: activated at least one” value was “activated at least one of the cell lines at least as much as GABA itself”.

On to `CC(=O)[C@H]1CC[C@H]2[C@@H]3CC[C@H]4C[C@H](O)CC[C@]4(C)[C@H]3C(=O)C[C@]12C` [5-alpha-pregnan-3alpha-ol-11,20-dione], for which the “HTS hit: activated at least one” value is listed as “activated at least one of the cell lines at least as much as GABA itself”.

As to `CN1C(=O)CCS(=O)(=O)C1c1ccc(Cl)cc1` (centres unmarked) [Chlormezanone], the “HTS hit: activated at least one” value is on record as “identified”.

In the case of `OCCN(CCO)c1nc(N2CCCCC2)c2nc(N(CCO)CCO)nc(N3CCCCC3)c2n1` [Dipyridamole], the “HTS hit: activated at least one” value is on record as “identified”.

Regarding `NCCCC(=O)O` [GABA], the “HTS hit: activated at least one” value is “activated at least one of the cell lines at least as much as GABA itself”.

Regarding `COc1cc(/C=C(\C#N)C(=O)c2ccc(O)c(O)c2)cc(I)c1O` [I-OMe-Tyrphostin AG 538], the “HTS hit: activated at least one” value is reported as “identified”.

With `O=C(O)C1=CCNCC1` [Isoguvacine hydrochloride], the “HTS hit: activated at least one” value is on record as “activated at least one of the cell lines at least as much as GABA itself”.

For the compound `NCc1cc(=O)[nH]o1` [Muscimol hydrobromide], the “HTS hit: activated at least one” value is “activated at least one of the cell lines at least as much as GABA itself”.

Turning to `O=C(Nc1ccc([N+](=O)[O-])cc1Cl)c1cc(Cl)ccc1O` [Niclosamide], the “HTS hit: activated at least one” value is listed as “identified”.

For the compound `O=S(=O)(O)C1CCNCC1` [Piperidine-4-sulphonic acid], the “HTS hit: activated at least one” value is recorded as “activated at least one of the cell lines at least as much as GABA itself”.

With `CCCCNc1c(C(=O)OCC)c(C)nc2c1cnn2CC` [Tracazolate], the “HTS hit: activated at least one” value was “activated at least one of the cell lines at least as much as GABA itself”.

`CC(C)(C)c1cc(C=C(C#N)C#N)cc(C(C)(C)C)c1O` [Tyrphostin A9]: the “HTS hit: activated at least one” value is reported as “identified”.

With Ivermectin, the “HTS hit: activated at least one” value is on record as “identified”.

Another assay deals with proteolyzed αβγ-ENaC. The assay can be described thus: HTS of a compound library against proteolyzed ENaC cell line. The format is cell-based.
Settings: not given
As to the method: as §2, with “The intracellular solution for sodium current recordings contained the following: 50 mM CsCl, 10 mM NaCl, 60 mM CsF, 20 mM EGTA, 10 mM Hepes, pH 7.2 (adjusted with CsOH). For transient transfection studies, Fugene 6 was used to transfect expression plasmid into cells cultured as above and cells were assayed three days post-transfection.” left out
(§3) Finally, Chromovert® Technology was used to create a cell line for ENaC. […] One potentiator identified during HTS of proteolyzed ENaC was assessed in human sensory studies where it was confirmed to enhance the salty taste of sodium chloride, as shown in FIG. 23E.
In the case of `CCCc1ccc(OC(=O)c2ccco2)cc1` [STE1, 4-propylphenyl 2-furoate], the “activity identified during HTS of proteolyzed αβγ-ENaC” value is “potentiator of proteolyzed αβγ-ENaC”.

A further assay concerns the target T1, αβγ-ENaC (Homo sapiens, UniProt P37088+P51168+P51170).
T1 construct: expressed in transfected cells
Nature of the assay: cell-based assay selective for αβγ-ENaC activity (response to sodium increase). As to conditions: 75 mM increase in sodium concentration, FIG. 23B right panel. As to the method: Production of cell lines: Each gene of interest was subcloned into an independent mammalian expression vector containing a detection tag and drug selectable marker and transfected into HEK293T and CHO cells cultured using DMEM supplemented with 50 mL fetal bovine serum, a 4 mM L-Glutamine, 10 mM Hepes pH 7.4. After 1 to 3 days cells were transferred to fresh media containing mild selective pressure for 7 to 14 days. […]
as §1, §3
For `N=C(N)NC(=O)c1nc(Cl)c(N)nc1N` [amiloride], the “effect on the response of the αβγ-ENaC cell line to a sodium increase” value is “inhibition of the response to a 75 mM increase in sodium concentration”.
